Where “and” joins values, the source holds several entries; their conditions need not be identical. Identical values can stand only once.
How the values were obtained:
Format in all cases: cell-based
[1] = biological target: T1, human vanilloid receptor-1 (TRPV-1) (Homo sapiens, UniProt Q8NER1); test: Calcium Flux Test, inhibition of phenethyl alcohol-induced calcium flux; conditions: 10 uM capsazepine; for inhibition at 10 µM: read-out: (column without head; percent inhibition)
T1 construct: host or cells: HEK293
Protocol: (§1) The Calcium Flux Test is performed in the following manner: Recombinant HEK293 cells expressing human vanilloid receptor-1 (TRPV-1; accession number AF196175, EMD Millipore, Billerica, Mass.) are grown in D-MEM/F-12 media (Life Technologies, Grand Island, N.Y.) supplemented with 10% fetal bovine serum, 1% non essential amino acids and 400 μg/mL Geneticin (Gibco, Life Technologies). Cells are plated at a concentration of 15,000 cells per well on poly-D-lysine-coated 384 well plates and incubated overnight at 5% CO2 and 37° C. After incubation, culture media is removed from the wells and replaced with 50 μL per well of Fluo-8 No Wash dye solution (#36315, AAT Bioquest, Sunnyvale, Calif.). The Fluo-8 dye solution is prepared by mixing 20 uL of Fluo-8 NW with 30 mL of 0.33× Pluronic® F127 Plus (BASF of Ludwigshafen, Germany) in assay buffer (1×HBSS+2% of HEPES). Fluo-8 dye is incubated for 30 minutes at room temperature. Intracellular calcium (Ca^2+) flux is monitored upon exposure to aromatic alcohol in DMSO vehicle by measuring fluorescence intensity at Ex/Em 490/525 on a Functional Drug Screening System (FDSS; Hamamatsu, […]). Measurements are taken every second for a period of 4 minutes. […] Statistical differences are obtained using One Way ANOVA with Tukey Post-hoc test; statistical significance is defined as P≦0.05.
(§2) The Maximum RFU obtained with a given concentration of aromatic alcohol is compared with the Maximum RFU obtained using the same concentration of aromatic alcohol but pretreated with the TRPV-1 antagonist for 5 minutes after dye incubation. Percent inhibition achieved with the TRPV-1 antagonist is calculated as: 100*((Maximum RFU of aromatic alcohol−Maximum RFU of aromatic alcohol pretreated with TRPV-1 antagonist)/Maximum RFU of aromatic alcohol).
Capsazepine was tested for activity as a TRPV-1 antagonist with different concentrations of phenethyl alcohol in DMSO as described in Example 2. […]

[2] = biological target: T1, human vanilloid receptor-1 (TRPV-1); test: Calcium Flux Test, phenoxyethanol replaced with capsaicin (capsaicin-induced calcium flux)
Protocol: as §1, §2
(§3) Capsazepine and AMG9810 were tested for activity as TRPV-1 antagonists using the Calcium Flux Test using two different concentrations of phenoxyethanol in DMSO. They were also tested using the Calcium Flux Test in which phenoxyethanol was replaced with capsaicin. […]

[3] = biological target: T1, human vanilloid receptor-1 (TRPV-1); test: Calcium Flux Test, inhibition of phenoxyethanol-induced calcium flux
Protocol: as §1, §2, §3

[4] = biological target: T1, human vanilloid receptor-1 (TRPV-1); test: Calcium Flux Test, inhibition of benzyl alcohol-induced calcium flux; conditions: 10 uM capsazepine
Protocol: as §1, §2
Capsazepine was tested for activity as a TRPV-1 antagonist with different concentrations of benzyl alcohol in DMSO as described in Example 2. […]

[5] = capsazepine 2 nM, capsaicin 300 nM
[6] = capsazepine 10 nM, capsaicin 100 nM
[7] = capsazepine 10 nM, capsaicin 300 nM
[8] = capsazepine 39 nM, capsaicin 100 nM
[9] = capsazepine 39 nM, capsaicin 300 nM
[10] = capsazepine 156 nM, capsaicin 100 nM
[11] = capsazepine 156 nM, capsaicin 300 nM
[12] = capsazepine 625 nM, capsaicin 100 nM
[13] = capsazepine 625 nM, capsaicin 300 nM
[14] = capsazepine 2500 nM, capsaicin 100 nM
[15] = capsazepine 2500 nM, capsaicin 300 nM
[16] = capsazepine 10000 nM, capsaicin 100 nM
[17] = capsazepine 10000 nM, capsaicin 300 nM
[18] = capsazepine 0.6104 nM, phenoxyethanol 2 mM
[19] = capsazepine 0.6104 nM, phenoxyethanol 3 mM
[20] = capsazepine 2 nM, phenoxyethanol 2 mM
[21] = capsazepine 10 nM, phenoxyethanol 2 mM
[22] = capsazepine 10 nM, phenoxyethanol 3 mM
[23] = capsazepine 39 nM, phenoxyethanol 2 mM
[24] = capsazepine 39 nM, phenoxyethanol 3 mM
[25] = capsazepine 156 nM, phenoxyethanol 2 mM
[26] = capsazepine 156 nM, phenoxyethanol 3 mM
[27] = capsazepine 625 nM, phenoxyethanol 2 mM
[28] = capsazepine 625 nM, phenoxyethanol 3 mM
[29] = capsazepine 2500 nM, phenoxyethanol 2 mM
[30] = capsazepine 2500 nM, phenoxyethanol 3 mM
[31] = capsazepine 10000 nM, phenoxyethanol 2 mM
[32] = capsazepine 10000 nM, phenoxyethanol 3 mM

T1 sequence (Q8NER1 whole entry): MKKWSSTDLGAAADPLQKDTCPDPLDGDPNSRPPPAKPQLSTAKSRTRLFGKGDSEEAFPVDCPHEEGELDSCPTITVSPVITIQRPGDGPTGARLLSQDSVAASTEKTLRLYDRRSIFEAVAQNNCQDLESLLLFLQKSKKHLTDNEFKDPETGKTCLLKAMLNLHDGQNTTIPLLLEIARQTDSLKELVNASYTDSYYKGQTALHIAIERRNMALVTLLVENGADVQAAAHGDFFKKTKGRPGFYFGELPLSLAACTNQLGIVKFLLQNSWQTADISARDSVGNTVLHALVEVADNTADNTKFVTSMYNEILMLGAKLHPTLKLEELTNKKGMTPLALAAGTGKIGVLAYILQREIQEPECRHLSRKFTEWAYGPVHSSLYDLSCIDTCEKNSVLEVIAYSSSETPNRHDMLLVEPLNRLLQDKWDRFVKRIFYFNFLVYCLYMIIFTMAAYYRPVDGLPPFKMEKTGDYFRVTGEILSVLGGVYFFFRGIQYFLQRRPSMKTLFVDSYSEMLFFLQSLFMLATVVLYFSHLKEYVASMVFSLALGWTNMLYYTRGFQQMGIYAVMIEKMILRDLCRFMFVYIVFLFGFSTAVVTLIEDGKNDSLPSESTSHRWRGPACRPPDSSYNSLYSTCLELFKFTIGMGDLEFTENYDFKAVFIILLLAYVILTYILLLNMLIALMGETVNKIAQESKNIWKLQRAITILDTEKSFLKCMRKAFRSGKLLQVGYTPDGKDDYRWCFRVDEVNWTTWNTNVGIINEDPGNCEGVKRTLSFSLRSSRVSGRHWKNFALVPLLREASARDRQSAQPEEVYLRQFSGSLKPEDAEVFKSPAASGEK

Oc1cc2c(cc1O)CN(C(=S)NCCc1ccc(Cl)cc1)CCC2 [Capsazepine, capsazepine]
Maximum RFU ([1]; phenethyl alcohol 0 % w/v): 13.44 RFU and 17.46 ± 0.4 RFU | Maximum RFU ([1]; phenethyl alcohol 0.000002 % w/v): 12.76 RFU and 18.03 ± 3.35 RFU | Maximum RFU ([1]; phenethyl alcohol 0.000006 % w/v): 13.70 RFU and 18 ± 0.75 RFU | Maximum RFU ([1]; phenethyl alcohol 0.000018 % w/v): 13.60 RFU and 18.18 ± 0.59 RFU | Maximum RFU ([1]; phenethyl alcohol 0.00016 % w/v): 11.64 RFU and 19.48 ± 0.51 RFU | Maximum RFU ([1]; phenethyl alcohol 0.00048 % w/v): 11.71 RFU and 20.58 ± 0.6 RFU | Maximum RFU ([1]; phenethyl alcohol 0.0015 % w/v): 11.68 RFU and 18.5 ± 0.5 RFU | inhibition at 10 µM ([1]; phenethyl alcohol 0.0015 % w/v): 54.3% | (column without head; percent inhibition) ([1]; phenethyl alcohol 0.0044 % w/v): 56.15% and 80.22% | Maximum RFU ([1]; phenethyl alcohol 0.0044 % w/v): 11.56 RFU and 15.66 ± 0.4 RFU | (column without head; percent inhibition) ([1]; phenethyl alcohol 0.013 % w/v): 93.84% | inhibition at 10 µM ([1]; phenethyl alcohol 0.013 % w/v): 96.3% | (column without head; percent inhibition) ([1]; phenethyl alcohol 0.04 % w/v): 91.52% | Maximum RFU ([1]; phenethyl alcohol 0.04 % w/v): 26.42 RFU and 39.89 ± 5.81 RFU | inhibition at 10 µM ([1]; phenethyl alcohol 0.04 % w/v): 94% | (column without head; percent inhibition) ([1]; phenethyl alcohol 0.12 % w/v): 37.18% | Maximum RFU ([1]; phenethyl alcohol 0.12 % w/v): 345.95 RFU and 364.66 ± 13.76 RFU | inhibition at 10 µM ([1]; phenethyl alcohol 0.12 % w/v): 42.9% | Maximum RFU (mean ± SD) ([2]; capsazepine 2 nM, capsaicin 100 nM): 665.83 ± 90.25 RFU | Maximum RFU (mean ± SD) [2, 5]: 850.93 ± 28.65 RFU | inhibition at 0.002 µM [2, 5]: 1.16% | Maximum RFU (mean ± SD) [2, 6]: 461.29 ± 221.27 RFU | inhibition at 0.01 µM [2, 6]: 28.7% | Maximum RFU (mean ± SD) [2, 7]: 771.64 ± 25.92 RFU | inhibition at 0.01 µM [2, 7]: 10.4% | Maximum RFU (mean ± SD) [2, 8]: 187.95 ± 177.88 RFU | inhibition at 0.039 µM [2, 8]: 71% | Maximum RFU (mean ± SD) [2, 9]: 557.38 ± 79.48 RFU | inhibition at 0.039 µM [2, 9]: 35.3% | Maximum RFU (mean ± SD) [2, 10]: 29.36 ± 6.46 RFU | inhibition at 0.156 µM [2, 10]: 95.5% | Maximum RFU (mean ± SD) [2, 11]: 51.20 ± 14.34 RFU | inhibition at 0.156 µM [2, 11]: 94% | Maximum RFU (mean ± SD) [2, 12]: 24.39 ± 5.19 RFU | inhibition at 0.625 µM [2, 12]: 96.2% | Maximum RFU (mean ± SD) [2, 13]: 28.36 ± 3.16 RFU | inhibition at 0.625 µM [2, 13]: 96.7% | Maximum RFU (mean ± SD) [2, 14]: 27.61 ± 4.95 RFU | inhibition at 2.5 µM [2, 14]: 95.7% | Maximum RFU (mean ± SD) [2, 15]: 31.08 ± 3.44 RFU | inhibition at 2.5 µM [2, 15]: 96.4% | Maximum RFU (mean ± SD) [2, 16]: 45.31 ± 14.17 RFU | inhibition at 10 µM [2, 16]: 93% | Maximum RFU (mean ± SD) [2, 17]: 58.73 ± 4.40 RFU | inhibition at 10 µM [2, 17]: 93.2% | Maximum RFU (mean ± SD) ([3]; capsazepine 0.1526 nM, phenoxyethanol 2 mM): 319.33 ± 77.43 RFU | Maximum RFU (mean ± SD) ([3]; capsazepine 0.1526 nM, phenoxyethanol 3 mM): 508.45 ± 81.79 RFU | Maximum RFU (mean ± SD) [3, 18]: 210.03 ± 46.34 RFU | inhibition at 0.0006104 µM [3, 18]: 26.8% | Maximum RFU (mean ± SD) [3, 19]: 351.36 ± 32.21 RFU | inhibition at 0.0006104 µM [3, 19]: 20.5% | Maximum RFU (mean ± SD) [3, 20]: 236.10 ± 8.91 RFU | inhibition at 0.002 µM [3, 20]: 17.7% | Maximum RFU (mean ± SD) ([3]; capsazepine 2 nM, phenoxyethanol 3 mM): 486.75 ± 153.02 RFU | Maximum RFU (mean ± SD) [3, 21]: 154.95 ± 19.56 RFU | inhibition at 0.01 µM [3, 21]: 46% | Maximum RFU (mean ± SD) [3, 22]: 340.96 ± 12.96 RFU | inhibition at 0.01 µM [3, 22]: 22.8% | Maximum RFU (mean ± SD) [3, 23]: 75.06 ± 6.64 RFU | inhibition at 0.039 µM [3, 23]: 73.8% | Maximum RFU (mean ± SD) [3, 24]: 176.52 ± 75.37 RFU | inhibition at 0.039 µM [3, 24]: 60% | Maximum RFU (mean ± SD) [3, 25]: 87.54 ± 8.38 RFU | inhibition at 0.156 µM [3, 25]: 69.5% | Maximum RFU (mean ± SD) [3, 26]: 101.59 ± 2.44 RFU | inhibition at 0.156 µM [3, 26]: 77% | Maximum RFU (mean ± SD) [3, 27]: 57.76 ± 2.15 RFU | inhibition at 0.625 µM [3, 27]: 79.9% | Maximum RFU (mean ± SD) [3, 28]: 75.71 ± 3.39 RFU | inhibition at 0.625 µM [3, 28]: 82.9% | Maximum RFU (mean ± SD) [3, 29]: 84.79 ± 2.68 RFU | inhibition at 2.5 µM [3, 29]: 70.5% | Maximum RFU (mean ± SD) [3, 30]: 99.71 ± 6.08 RFU | inhibition at 2.5 µM [3, 30]: 77.4% | Maximum RFU (mean ± SD) [3, 31]: 79.39 ± 2.79 RFU | inhibition at 10 µM [3, 31]: 72.3% | Maximum RFU (mean ± SD) [3, 32]: 106.49 ± 4.15 RFU | inhibition at 10 µM [3, 32]: 75.9% | Maximum RFU ([4]; benzyl alcohol 0 % w/v): 13.30 RFU and 18.24 ± 1.3 RFU | Maximum RFU ([4]; benzyl alcohol 0.00000199 % w/v): 11.32 RFU and 18.74 ± 2.18 RFU | Maximum RFU ([4]; benzyl alcohol 0.00000598 % w/v): 9.46 RFU and 16.77 ± 1.48 RFU | Maximum RFU ([4]; benzyl alcohol 0.0000538 % w/v): 10.90 RFU and 18.44 ± 0.07 RFU | Maximum RFU ([4]; benzyl alcohol 0.001452 % w/v): 11.63 RFU and 15.7 ± 2.1 RFU | % Inhibition ([4]; benzyl alcohol 0.004357 % w/v): 72.51% | Maximum RFU ([4]; benzyl alcohol 0.004357 % w/v): 8.14 RFU and 15.33 ± 1 RFU | inhibition at 10 µM ([4]; benzyl alcohol 0.004357 % w/v): 74.2% | % Inhibition ([4]; benzyl alcohol 0.013072 % w/v): 82.58% | inhibition at 10 µM ([4]; benzyl alcohol 0.013072 % w/v): 88.8% | % Inhibition ([4]; benzyl alcohol 0.04 % w/v): 93.23% | Maximum RFU ([4]; benzyl alcohol 0.04 % w/v): 18.82 RFU and 28.72 ± 1.5 RFU | inhibition at 10 µM ([4]; benzyl alcohol 0.04 % w/v): 95.4% | Maximum RFU ([4]; benzyl alcohol 6.64E−07 % w/v): 11.79 RFU and 18.24 ± 2.53 RFU

Reference: patent US9155714B2, “Compositions comprising an aromatic alcohol and a TRPV-1 antagonist, and uses thereof” (JOHNSON & JOHNSON CONSUMER INC., priority 2013, dated 2015)
